# Laboratory results as given in patent US20220153746A1, “NITROGEN OXIDE-DONATING PDE-5 AND/OR PDE-6 INHIBITOR COMPOUNDS, AND USES THEREOF” (ILDONG PHARMACEUTICAL CO., LTD., priority 2020, published 2022).
# Read-outs that look alike come from different tables or passages of the source.
# Columns and labels:
# [1] = Metabolic stability in human liver microsomes; assay type: in vitro ADME; settings: 37° C., 0-60 minutes
# Experimental: This example illustrates the metabolic stability of selected compounds in human liver microsomes samples.
# Both test and control compound solutions were prepared by diluting 5 μL of the respective stock solutions (10 mM in DMSO) containing either the test or control compound with 495 μL of acetonitrile (ACN) to give intermediate solutions with concentrations of 100 μM (99% ACN).
# β-Nicotinamide adenine dinucleotide phosphate tetrasodium salt (NADPH.4Na) was purchased from BONTAC (cat. No. BT04). The NADPH working solution (10 unit/mL) was prepared by combining the appropriate amount of NADPH powder and a MgCl2 solution (10 mM) to give final concentration in the reaction system of 1 unit/mL.
# The appropriate concentrations of the microsome working solutions were prepared in 100 mM potassium phosphate buffer.
# Cold (4° C.) acetonitrile solution containing 200 ng/mL tolbutamide and 200 ng/mL labetalol (internal standard) was used as the stop solution.
# Liver microsomes solution was diluted to 0.56 mg/mL in 100 mM phosphate buffer, and 445 μL of this solution was transferred into pre-warmed (10 minutes) “incubation” plates T60 and NCF60; the “incubation” plates T60 and NCF60 were pre-warmed for 10 minutes at 37° C. with constant shaking.
# 54 μL of the liver microsome solutions was transferred to the blank plate, followed by addition of 6 μL of the NAPDH cofactor solution and 180 μL of the quenching solution to the same blank plate.
# 5 μL of the compound working solution (100 μM concentration) was next added to into the “incubation” plates (T60 and NCF60) containing microsomes and mixed 3 times thoroughly. For the NCF60 plate, 50 μL of the buffer solution was added, mixed 3 times thoroughly, and incubated at 37° C. for 60 minutes under constant shaking.
# In the “Quenching” plate at T0 (T=0 min), 180 μL of quenching solution and 6 μL of the NAPDH cofactor solution were added, and the resulting plate was chilled to prevent evaporation.
# In the T60 plate, after it was thoroughly mixed, 54 μL of the mixture was immediately transferred to the “quenching” plate for the 0-minute time point, followed by addition of 44 μL of NAPDH cofactor solution to the incubation plate (T60). The resulting mixture was then incubated at 37° C. for 60 minutes under constant shaking. At time points of 5, 10, 20, 30 and 60 minutes, 180 μL of the quenching solution was added to the “quenching” plates, followed by serial transfer of 60 μL of the mixture (per time point) from the T60 plate to the “Quenching” plates.
# For the NCF60 plates, 60 μL of the sample solution was transferred from the NCF60 incubation plate to the “Quenching” plate containing quenching solution at T=60 min time point. […]
# [2] = Plasma protein binding assay (equilibrium dialysis); assay type: in vitro ADME; settings: human plasma, dialysis 4 hours at 37° C.
# Experimental: (§1) The dialysis device used in this example is a 96-well equilibrium dialysis plate (Cat #1006, HT Dialysis LLC, Gales Gerry, CT), and HTD 96 a/b dialysis membrane strips (Cat #1101, MWCO 12-14 kDa, HT Dialysis LLC). The dialysis device was assembled following the manufacturer's instructions.
# (§2) The dialysis membrane strips were soaked in ultra-pure water at room temperature for approximately 1 hour. Each membrane strip containing 2 membranes was separated and soaked in 20:80 ethanol/water (v/v) for approximately 20 minutes, after which they were ready for used or were stored in the solution at 2-8° C. for up to a month. Prior to experiment, the membrane was rinsed and soaked for 20 minutes in ultra-pure water.
# (§3) On the day of the experiment, the plasma was thawed by running under col tap water and centrifuged at 3220 rpm for 5 minutes to remove any clos. The pH value of the resulting plasma was checked. Only plasma with pH value with 7.0-8.0 could be used.
# (§4) Both test and control compounds were dissolved in DMSO to achieve 10 mM stock solutions. Working solutions (400 μM) if test and control compounds were prepared by diluting 10μ of stock solutions with 240 μL of DMSO. Loading matrix solutions (2 μM) of both test and control compounds were prepared by diluting 5 μL of working solutions with 995 μL of blank matrix.
# (§5) To prepare the loading matrix containing the test compound or control compounds, aliquots of either test compound working solutions or control compound working solution were spiked into blank matrix to achieve final test concentrations. The concentration of organic solvent in the final solutions were no more than 1% (normally 0.5%). The samples were mixture thoroughly before being used.
# (§6) To prepare the time zero (T0) samples to be used for recovery determinations. 50 μL aliquots of loading matrix solution were transferred in triplicate to the sample collection plate. The samples were immediately matched with opposite blank buffer to obtain a final volume of 100 μL of 1:1 matrix/dialysis buffer (v/v) in each well. 500 μL of stop solution were added to these T0 samples. They were then stored at 2-8° C. pending further processes along with other post-dialysis samples.
# (§7) To load the dialysis device, an aliquot of 150 μL of the loading matrix was transferred to the donor side of each dialysis well in triplicate, and 150 μL of the dialysis buffer was loaded to the received side of the well. The dialysis was placed in humidified incubator at 37° C. with 5% CO2 on a shaking platform that rated slowly (about 100 rpm) for 4 hours.
# (§8) At the end of the dialysis, aliquots of 50 μL of samples were taken from both the buffer side and the matrix side of the dialysis deice. These samples were transferred into new 96-well plates (the sample collection plates). Each sample was mixed with an equal volume of opposite blank matrix (buffer or matrix) to reach a final volume of 100 μL of 1:1 matrix/dialysis buffer (v/v) in each well. All samples were further processed by adding 500 μL of stop solution containing internal standards. The mixture was vortexed and centrifuged at 4000 rpm for about 20 minutes. An aliquot of 100 μL of supernatant of all the samples were then removed for LC-MS/MS analysis.
# (§9) The single blank samples were prepared by transferring 50 μL of blank matrix to a 96 well plate and adding 50 μL of blank PBS buffer to each well. The blank plasma must match the species of plasma used in the plasma side of the well. Then the matrix-matched samples were further processed by adding 500 μL of stop solution containing internal standards, following the same sample processing method as the dialysis samples.
# human plasma proteins = experiment: as above; assay type: in vitro ADME; settings: 2 μM, dialysis 4 hours at 37° C.
# Experimental: as §1, §2, §3, §4, §5, §6, §7, §8, §9
# human PDE-5A1 = human PDE-5A1 (Homo sapiens, UniProt O76074); experiment: Human PDE-5A1 inhibition assay (fluorescence polarization, FAM-cGMP); assay type: biochemical
# human PDE-6C = human PDE-6C (Homo sapiens, UniProt P51160); experiment: Human PDE-6C inhibition assay (fluorescence polarization, FAM-cGMP); assay type: biochemical
# Sequence of human PDE-6C (P51160 whole entry): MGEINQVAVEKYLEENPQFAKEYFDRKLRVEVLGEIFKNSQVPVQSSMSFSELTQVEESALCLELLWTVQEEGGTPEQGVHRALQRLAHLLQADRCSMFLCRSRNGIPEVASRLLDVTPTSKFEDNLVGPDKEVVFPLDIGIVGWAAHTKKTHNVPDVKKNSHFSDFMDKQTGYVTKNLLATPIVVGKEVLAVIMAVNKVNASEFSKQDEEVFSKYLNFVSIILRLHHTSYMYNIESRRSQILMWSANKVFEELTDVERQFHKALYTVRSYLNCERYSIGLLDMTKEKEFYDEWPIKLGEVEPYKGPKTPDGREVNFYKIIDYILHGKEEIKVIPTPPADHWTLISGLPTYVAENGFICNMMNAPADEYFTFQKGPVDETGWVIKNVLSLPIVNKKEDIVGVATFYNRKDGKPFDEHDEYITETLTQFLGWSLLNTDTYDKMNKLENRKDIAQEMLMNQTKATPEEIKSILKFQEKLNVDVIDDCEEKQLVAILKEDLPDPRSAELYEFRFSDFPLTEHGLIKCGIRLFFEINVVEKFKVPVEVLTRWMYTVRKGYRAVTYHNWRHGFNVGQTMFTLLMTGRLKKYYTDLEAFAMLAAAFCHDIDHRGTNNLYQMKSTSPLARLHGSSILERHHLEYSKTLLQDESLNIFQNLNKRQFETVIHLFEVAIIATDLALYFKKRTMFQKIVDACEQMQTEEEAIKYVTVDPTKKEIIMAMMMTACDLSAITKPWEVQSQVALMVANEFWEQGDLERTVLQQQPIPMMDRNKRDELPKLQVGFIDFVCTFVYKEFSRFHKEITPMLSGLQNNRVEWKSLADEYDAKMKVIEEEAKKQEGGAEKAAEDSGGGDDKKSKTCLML
Structure (SMILES),IC50 (human PDE-5A1; read-out: IC50 (μM) PDE5A1) [µM],IC50 (human PDE-6C; read-out: IC50 (μM) PDE6C) [µM],IC50 (human PDE-5A1) [µM],IC50 (human PDE-6C) [µM],further results
"CCCc1nn(C)c2c(=O)[nH]c(-c3cc(S(=O)(=O)N4CC(NCCCO)C4)ccc3OCC)nc12 [Compound 10, 5-(2-ethoxy-5-((3-((3-hydroxypropyl)amino)azetidin-1-yl)sulfonyl)phenyl)-1-methy-3-propyl-1,6-dihydro-7H-pyrazolo[4,3-d]pyrimidin-7-one]",,,,,"CLint scaled at 1 µM [1]: 55 mL/min/kg; fraction unbound at 4 h, 2 µM [2]: 0.138; % Bound (human plasma proteins): 86.19%"
"CCCc1nn(C)c2c(=O)[nH]c(-c3cc(S(=O)(=O)N4CC(N5CC(O[N+](=O)[O-])C5)C4)ccc3OCC)nc12 [Compound 39, 1′-((4-ethoxy-3-(1-methyl-7-oxo-3-propyl-6,7-dihydro-1H-pyrazolo[4,3-d]pyrimidin-5-yl)phenyl)sulfonyl)-[1,3′-biazetidin]-3-yl nitrate]",< 0.01,< 0.01,,,
"CCCc1nn(C)c2c(=O)[nH]c(-c3cc(S(=O)(=O)N4CC(N5CC(CO[N+](=O)[O-])C5)C4)ccc3OCC)nc12 [Compound 40, (1′-((4-ethoxy-3-(1-methyl-7-oxo-3-propyl-6,7-dihydro-1H-pyrazolo[4,3-d]pyrimidin-5-yl)phenyl)sulfonyl)-[1,3′-biazetidin]-3-yl)methyl nitrate]",0.01 to 0.1,< 0.01,,,
"CCCc1nn(C)c2c(=O)[nH]c(-c3cc(S(=O)(=O)N4CC(CCCOC(=O)CCCCCO[N+](=O)[O-])C4)ccc3OCC)nc12 [Compound 65, 3-(1-((4-ethoxy-3-(1-methyl-7-oxo-3-propyl-6,7-dihydro-1H-pyrazolo[4,3-d]pyrimidin-5-yl)phenyl)sulfonyl)azetidin-3-yl)propyl 6-(nitrooxy)hexanoate]",< 0.01,< 0.01,,,
"CCCc1nn(C)c2c(=O)[nH]c(-c3cc(S(=O)(=O)N4CC(NCCOC(=O)CCCCO[N+](=O)[O-])C4)ccc3OCC)nc12 [Compound 66, 2-((1-((4-ethoxy-3-(1-methyl-7-oxo-3-propyl-6,7-dihydro-1H-pyrazolo[4,3-d]pyrimidin-5-yl)phenyl)sulfonyl)azetidin-3-yl)amino)ethyl 5-(nitrooxy)pentanoate]",< 0.01,< 0.01,,,
"CCCc1nn(C)c2c(=O)[nH]c(-c3cc(S(=O)(=O)N4CC(N(C)CCOC(=O)CCCCCO[N+](=O)[O-])C4)ccc3OCC)nc12 [Compound 67, 2-((1-((4-ethoxy-3-(1-methyl-7-oxo-3-propyl-6,7-dihydro-1H-pyrazolo[4,3-d]pyrimidin-5-yl)phenyl)sulfonyl)azetidin-3-yl)(methyl)amino)ethyl 6-(nitrooxy)hexanoate]",< 0.01,< 0.01,,,
"CCCc1nn(C)c2c(=O)[nH]c(-c3cc(S(=O)(=O)N4CC(CCCOC(=O)CCCCC(CO[N+](=O)[O-])O[N+](=O)[O-])C4)ccc3OCC)nc12 (stereo not shown) [Compound 68, 3-(1-((4-ethoxy-3-(1-methyl-7-oxo-3-propyl-6,7-dihydro-1H-pyrazolo[4,3-d]pyrimidin-5-yl)phenyl)sulfonyl)azetidin-3-yl)propyl 6,7-bis(nitrooxy)heptanoate]",,,0.01 to 0.1,< 0.01,
"CCCc1nn(C)c2c(=O)[nH]c(-c3cc(S(=O)(=O)N4CC(NCCOC(=O)CCCCC(CO[N+](=O)[O-])O[N+](=O)[O-])C4)ccc3OCC)nc12 (stereo not shown) [Compound 69, 2-((1-((4-ethoxy-3-(1-methyl-7-oxo-3-propyl-6,7-dihydro-1H-pyrazolo[4,3-d]pyrimidin-5-yl)phenyl)sulfonyl)azetidin-3-yl)amino)ethyl 6,7-bis(nitrooxy)heptanoate]",,,< 0.01,< 0.01,
"CCCc1nn(C)c2c(=O)[nH]c(-c3cc(S(=O)(=O)N4CC(N(C)CCOC(=O)CCCCC(CO[N+](=O)[O-])O[N+](=O)[O-])C4)ccc3OCC)nc12 (stereo not shown) [Compound 70, 2-((1-((4-ethoxy-3-(1-methyl-7-oxo-3-propyl-6,7-dihydro-1H-pyrazolo[4,3-d]pyrimidin-5-yl)phenyl)sulfonyl)azetidin-3-yl)(methyl)amino)ethyl 6,7-bis(nitrooxy)heptanoate]",,,< 0.01,< 0.01,
"CCCc1nn(C)c2c(=O)[nH]c(-c3cc(S(=O)(=O)N4CC(CCCOC(=O)CCCCO[N+](=O)[O-])C4)ccc3OCC)nc12 [Compound 71, 3-(1-((4-ethoxy-3-(1-methyl-7-oxo-3-propyl-6,7-dihydro-1H-pyrazolo[4,3-d]pyrimidin-5-yl)phenyl)sulfonyl)azetidin-3-yl)propyl 5-(nitrooxy)pentanoate]",< 0.01,< 0.01,,,
"CCCc1nn(C)c2c(=O)[nH]c(-c3cc(S(=O)(=O)N4CC(CCCOC(=O)CCCO[N+](=O)[O-])C4)ccc3OCC)nc12 [Compound 72, 3-(1-((4-ethoxy-3-(1-methyl-7-oxo-3-propyl-6,7-dihydro-1H-pyrazolo[4,3-d]pyrimidin-5-yl)phenyl)sulfonyl)azetidin-3-yl)propyl 4-(nitrooxy)butanoate]",< 0.01,< 0.01,,,
"CCCc1nn(C)c2c(=O)[nH]c(-c3cc(S(=O)(=O)N4CC(CCCOC(=O)CCC(CO[N+](=O)[O-])O[N+](=O)[O-])C4)ccc3OCC)nc12 (stereo not shown) [Compound 73, 3-(1-((4-ethoxy-3-(1-methyl-7-oxo-3-propyl-6,7-dihydro-1H-pyrazolo[4,3-d]pyrimidin-5-yl)phenyl)sulfonyl)azetidin-3-yl)propyl 4,5-bis(nitrooxy)pentanoate]",,,< 0.01,< 0.01,
